From PMC8704911, “Novel Combinatorial Strategy Using Thermal Inkjet Bioprinting, Chemotherapy, and Radiation on Human Breast Cancer Cells; an In-Vitro Cell Viability Assessment” (Materials, 2021)
Read-outs that look alike come from different tables or passages of the source.

Tests used:
MDA-MB-231 cells = details: H2O2 exposure, RT = 20 Gy (table head; Table 6 title says 10 Gray in 3 fractions)
MCF7 cells = details: H2O2 exposure
Method: PD 0332991 HCL (Palbociclib) and letrozole (Let; Formula: C17H11N5) were obtained from Fisher Scientific (Waltham, MA, USA). Palbociclib was dissolved in dimethyl sulfoxide (DMSO) to obtain a stock solution of 1 mM. Letrozole was dissolved in DMSO as a 100 mM stock solution. Drugs were serially diluted to determine the cytotoxic concentration 50% (CC50) of the TIB and manually seeded cell samples required to kill 50% of the cell population. Additionally, the CC50 values were determined by using the cytotoxicity values obtained experimentally and the linear interpolator webpage (https://www.johndcook.com/interpolator.html (accessed on 16 December 2021)) as previously described. […] TIB and MS MCF7 cells were incubated for 24 h prior to drug exposure. The same procedure explained in Section 2.5 was followed to determine cell viability.
Approximately, 1.2 × 10^6 cells/mL were resuspended in 1x PBS and used as the bioink cell solution. Modified inkjet cartridges were sonicated in deionized water for 15 min and tested in a previously modified thermal inkjet printer (HP Deskjet 340 Printer, HP, Palo Alto, CA, USA) inside of a biological safety cabinet. Next, 100 µL of cell solution was added to a modified sterile inkjet printer cartridge. The cell solution was bioprinted over one-half of the 96-well plate containing 200 µL of pre-incubated media. Manually seeded cells (MS) were added to the other half of the 96-well plate. Both TIB and MS cells were incubated immediately after with two media changes first at three days post bioprinting and then prior to the drug treatments.
Thermal inkjet bioprinted and manually seeded MCF7 cells were incubated for 5 days post bioprinting with two media changes to allow cells to settle and grow in their new environment. On the 5th day, each well-containing cell was adjusted to 10, 50, 100, and 150 µM PD and 10 µM Let. Letrozole remained constant for all treatments at 10 µM and is referred to as ##.# µM PD-Let. After 12 h post inoculation then at 24-h intervals for five consecutive days, all PD-Let-treated and non-treated cells were exposed to fractionated irradiation (RT) of 2, 4 (twice), and 5 (twice) Gray (Gy) for a cumulative dose of 10 and 20 Gy. Cell media was replenished after cumulative irradiation exposure of 10 Gy.
Cytotoxicity was assessed using an automated live-cell differential nuclear staining (DNS) imaging assay. […] Cytotoxicity was evaluated 12 h post irradiation by using the live-cell differential nuclear staining […] assay utilizing Hoechst 33342 and propidium iodide (PI) stains as previously described. […] Images of cells from individual wells used to quantify their viability profiles were independently captured by using the IN Cell Analyzer 2000 multi-well plate reader bioimager system (GE Healthcare, Systems, Chicago, IL, USA). […]

MCF-10A cells = details: H2O2 exposure

## OO [H2O2]
MDA-MB-231 cells
  Mean % of Live Cells MS: 0.4%
  Mean % of Live Cells TIB: 0.0%
MCF7 cells; RT = 10 gray in 3 fractions
  Mean % of Live Cells MS: 15.4%
  Mean % of Live Cells TIB: 12.1%
MCF7 cells; RT = 20 gray in 5 fractions
  Mean % of Live Cells MS: 0.3%
  Mean % of Live Cells TIB: 0.0%
MCF-10A cells; RT = 0
  Mean % of Live Cells MS: 0.00%
  Mean % of Live Cells TIB: 0.0%
MCF-10A cells; RT = 10 gray in 3 fractions, first column
  Mean % of Live Cells TIB: 2.9%
MCF-10A cells; RT = 10 gray in 3 fractions, second column so headed
  Mean % of Live Cells TIB: 2.8%
MCF-10A cells; RT = 20 Gray in 5 fractions
  Mean % of Live Cells MS: 1.9%
  Mean % of Live Cells TIB: 0.0%
